Test system: bacterial strains
Assay: Potentiation/synergy antimicrobial assay (checkerboard, FICI) with antibiotics
Format: cell-based
Conditions: for MIC of antibiotic with 6442 at concn 0: 6442 0 μg/mL; for MIC of antibiotic with 8980 at conc 0: 8980 0 μg/mL; for MIC of antibiotic with 8980 at conc 1: 8980 1 μg/mL; for MIC of antibiotic with 8981 at conc 0: 8981 0 μg/mL; for MIC of antibiotic with 8981 at conc 1: 8981 1 μg/mL; for MIC of antibiotic with 8981 at conc 2: 8981 2 μg/mL; for MIC of antibiotic with 8981 at conc 4: 8981 4 μg/mL; for MIC of antibiotic with OctC4 at concn 0: OctC4 0 μg/mL; for MIC of antibiotic with OctC4 at concn 0.125: OctC4 0.125 μg/mL
Procedure: Potentiation/synergy antimicrobial assays were conducted in the same manner as the standard MICs described above, with the following modifications. Assays were performed in 384-well non-binding surface plates (NBS; Corning 3460) and in Cation-adjusted Mueller Hinton Broth (CA-MHB; BD, Cat. No. 212322) with a final assay volume of 50 μL once bacteria was added at 5×10^5 CFU/mL. Antibiotics and octapeptin compounds were plated in duplicate as a 2-fold concentration series, in a matrix checkerboard format. The bacterial cell density of the resultant assay plates after 18-20 h incubation at 37° C. was read by optical density 600 nm (OD600) using a Tecan M1000 Pro Spectrophotometer, and analysed for ≥90% growth inhibition compared to the growth control to determine active concentrations. Synergistic effect was calculated based on the fractional inhibitory concentration index (FICI) by the following equation, where synergy is deemed FICI 0.5: […]

For `CO[C@H]1/C=C/O[C@@]2(C)Oc3c(C)c(O)c4c(O)c(c(/C=N/N5CCN(C)CC5)c(O)c4c3C2=O)NC(=O)/C(C)=C\C=C\[C@H](C)[C@H](O)[C@@H](C)[C@@H](O)[C@@H](C)[C@H](OC(C)=O)[C@@H]1C` [Rifampicin, rifampicin], which “MIC of antibiotic with 6442 at concn 0” value (GN_102 K. pneumoniae XDR/PmxR) is on record?
The value was 32 µg/mL.

What about the “MIC of antibiotic with 6442 at concn 0.125” value (GN_102 K. pneumoniae XDR/PmxR, 6442 0.125 μg/mL) of the same compound?
The value was 16 µg/mL.

And the “MIC of antibiotic with 8980 at conc 0” value (GN_102 K. pneumoniae XDR/PmxR)?
The value was 32 µg/mL.

What about the “MIC of antibiotic with 8980 at conc 1” value (GN_102 K. pneumoniae XDR/PmxR) of the same compound?
The value was 16 µg/mL.

And the “MIC of antibiotic with 8981 at conc 0” value (GN_102 K. pneumoniae XDR/PmxR)?
The value was 32 µg/mL.

And the “MIC of antibiotic with 8981 at conc 1” value (GN_102 K. pneumoniae XDR/PmxR)?
The value was 16 to 32 µg/mL.

What about the “MIC of antibiotic with 8981 at conc 2” value (GN_102 K. pneumoniae XDR/PmxR) of the same compound?
The value was 16 µg/mL.

What about the “MIC of antibiotic with 8981 at conc 4” value (GN_102 K. pneumoniae XDR/PmxR) of the same compound?
The value was 8 to 16 µg/mL.

What about the “MIC of antibiotic with OctC4 at concn 0” value (GN_102 K. pneumoniae XDR/PmxR) of the same compound?
The value was 32 µg/mL.

And the “MIC of antibiotic with OctC4 at concn 0.0625” value (GN_102 K. pneumoniae XDR/PmxR, OctC4 0.0625 μg/mL)?
Its value is 32 µg/mL.

And the “MIC of antibiotic with OctC4 at concn 0.125” value (GN_102 K. pneumoniae XDR/PmxR)?
Its value is 32 µg/mL.

What about the “MIC of antibiotic with 6442 at concn 0” value (GN_181 E. coli mcr-1) of the same compound?
The value was 32 µg/mL.

And the “MIC of antibiotic with 6442 at concn 0.25” value (GN_181 E. coli mcr-1, 6442 0.25 μg/mL)?
Its value is 0.25 µg/mL.

What about the “MIC of antibiotic with 8980 at conc 0” value (GN_181 E. coli mcr-1) of the same compound?
The value was 32 µg/mL.

What about the “MIC of antibiotic with 8980 at conc 1” value (GN_181 E. coli mcr-1) of the same compound?
Its value is 32 µg/mL.

And the “MIC of antibiotic with 8980 at conc 2” value (GN_181 E. coli mcr-1, 8980 2 μg/mL)?
Its value is 32 µg/mL.

And the “MIC of antibiotic with 8980 at conc 4” value (GN_181 E. coli mcr-1, 8980 4 μg/mL)?
Its value is 32 µg/mL.

What about the “MIC of antibiotic with 8981 at conc 0” value (GN_181 E. coli mcr-1) of the same compound?
Its value is 32 µg/mL.

What about the “MIC of antibiotic with 8981 at conc 1” value (GN_181 E. coli mcr-1) of the same compound?
Its value is 32 µg/mL.

What about the “MIC of antibiotic with 8981 at conc 2” value (GN_181 E. coli mcr-1) of the same compound?
Its value is 32 µg/mL.

What about the “MIC of antibiotic with 8981 at conc 4” value (GN_181 E. coli mcr-1) of the same compound?
Its value is 32 µg/mL.

And the “MIC of antibiotic with OctC4 at concn 0” value (GN_181 E. coli mcr-1)?
The value was 32 µg/mL.

How did the “MIC of antibiotic with OctC4 at concn 0” value (GN_043 P. aeruginosa PmxR) turn out when arenicin-3 was run?
The value was 2 µg/mL.

What about the “MIC of antibiotic with OctC4 at concn 0” value (GN_093 A. baumannii XDR/PmxR) of the same compound?
Its value is 0.5 µg/mL.

What about the “MIC of antibiotic with OctC4 at concn 0.125” value (GN_093 A. baumannii XDR/PmxR) of the same compound?
Its value is 0.008 µg/mL.

What about the “MIC of antibiotic with OctC4 at concn 0.25” value (GN_093 A. baumannii XDR/PmxR, OctC4 0.25 μg/mL) of the same compound?
The value was 0.016 µg/mL.
